# Assay results as given in a melting point compilation (Tetko et al.).
row,SMILES,melting point [°C]
1,CC(CCC(=O)O)n1nc2ccccc2n1 (configuration not stated),73
2,N#CCOc1cccc(Cl)c1,29
3,O=C1CC=CCC(=O)CC=CC1,184
4,O=[N+]([O-])c1ccc(CCBr)cc1,69
5,CC(NC(C)(C)C)C(=O)c1cccc(Cl)c1 (configuration not stated),234
6,C1=C\c2ccc(cc2)-c2ccccc2-c2ccc/1cc2,230
7,N#Cc1cnc2ccccc2c1,109
8,CC(C)(C)OC(=O)N1CCN(c2cc(C#N)ccn2)CC1,127 to 129
9,c1ccc(-c2nc3ccccc3o2)cc1,103
10,CCCNC(N)=S,120 to 123
11,NS(=O)(=O)c1ccc(SCCCCCO)cc1,103
12,CC(=O)N(Nc1ccccc1)c1ccc(-c2ccc(/N=N/c3ccccc3)cc2)cc1,244
13,NC(=O)CC[C@H](NC(=O)OCC1c2ccccc2-c2ccccc21)C(=O)O,218 to 223
14,CCC(Cl)C(C)Cl (configuration not stated),-77.3
15,CC(C)(C)NCC(O)c1ccccc1Cl (configuration not stated),89
16,CC(=O)NCc1c(I)c(NC(C)=O)c(I)c(C(=O)O)c1I,255
17,Nc1ccc(S(=O)(=O)NCCO)cc1,97 to 99
18,NC(=O)C(N)c1ccccc1 (configuration not stated),125 to 129
19,OC(C(F)(F)F)(C(F)(F)F)C(O)(C(F)(F)F)C(F)(F)F,18 to 20
20,CCCCNC(=O)COC(=O)c1ccccc1,69.5
21,CCOC(=O)c1c(N)sc2c1CCN(C(=O)OC(C)(C)C)C2,153
22,COc1ccc(C2(C#N)CCCCC2)cc1,43
23,NCCCCCCC(=O)O,195
24,OCC1OC(Oc2c[nH]c3ccc(Br)c(Cl)c23)C(O)C(O)C1O (configuration not stated),249 to 251
25,CCN(CC)c1nc2ccccc2c(=O)n1-c1ccccc1,109

row,SMILES,melting point [°C]
1,CCCC1COC(Cn2cncn2)(c2ccc(Cl)cc2Cl)O1 (configuration not stated),< 25
2,O=C(/C=C/c1ccco1)c1ccc(O)cc1,163
3,NC(=O)Cc1cccs1,147
4,CCCCCCCCCC(=O)OCC,-20
5,Nc1ccc(Nc2ccc(N)cc2)cc1,158
6,Cc1noc(C)c1C#N,46 to 48
7,CCCCC(C#N)(Cn1cncn1)c1ccc(Cl)cc1 (configuration not stated),70.9
8,COc1cc2c(cc1OCc1ccccc1)C(C)N(C)CC2 (configuration not stated),82
9,COc1cc(OC(C)=O)c2c(=O)c(OC(C)=O)c(-c3ccc(OCc4ccccc4)c(OC(C)=O)c3)oc2c1,182 to 192
10,OCc1cc(C(F)(F)F)ccc1Cl,59
11,COc1ccc(C=C(C#N)C(N)=O)cc1,321
12,CCCC1COC(c2ccc(C#N)cc2)OC1 (configuration not stated),57.5
13,CCOC(=O)CSc1nc(C(C)(C)C)nn1C(=O)N(C)C,53
14,S=C(n1ccnc1)n1ccnc1,96 to 103
15,O=C(C1CCNCC1)N1CCCC1,45 to 47
16,c1ccc(N2CCOCC2)cc1,51 to 54
17,CCOC(=O)Nc1nc(N)c(C(N)=O)s1,168 to 170
18,O=C(Oc1ccccc1)c1cccc(C(=O)Oc2ccccc2)c1,136 to 139
19,C1CCC(CCCCC2CCCCC2)CC1,12
20,N[C@@H](CO)c1ccccc1,75 to 79
21,O=C1CCCc2c1c1c3c(ccc4c3c2CCC4)CCC1,146 to 149
22,CC(C)COC(=O)C(C)Oc1ccc(Oc2ccc(Cl)cc2)cc1 (configuration not stated),39.5
23,Nc1cccc([N+](=O)[O-])c1[N+](=O)[O-],122
24,OCc1ccc(N2CCOCC2)cc1,96 to 98
25,N#Cc1ccc(CC(=O)O)cc1,151

row,SMILES,melting point [°C]
1,CCN(CC)CCCN(c1ccccc1)C1Cc2ccccc2C1,120
2,CC(C)CC(O)C(=O)O (racemic),75 to 78
3,Clc1ccc2c(c1)Oc1cc(Cl)ccc1O2,151
4,O=C(O)c1ccc(OCC(F)(F)F)nc1,174
5,CCC1(C2=CC3CCC(C2)C3)C(=O)NC(=O)NC1=O (configuration not stated),213
6,CCCCC=CC(=O)O,-19
7,Ic1ncc[nH]1,191
8,CCN1CCc2c3n(c4ccccc24)C(C(=O)OC)=CCC31 (configuration not stated),120
9,COc1ccc(-c2onc(C(=O)c3ccc(C)cc3)c2S(=O)(=O)c2ccccc2)cc1,170
10,C1CCC(P(C2CCCCC2)C2CCCCC2)CC1,77 to 83
11,O=C(NC(=O)c1c(F)cccc1F)Nc1cc(Cl)c(OC(F)(F)C(F)C(F)(F)F)cc1Cl (configuration not stated),169
12,O=Cc1cccn1-c1ccc(C(F)(F)F)cc1,97 to 98
13,Cc1nc(N)nc(NN)n1,250
14,FC(F)(F)c1ccc(-n2ccnc2)cc1,71 to 73
15,COC12C(COC(N)=O)C3=C(C(=O)C(C)=C(Nc4cnccc4N)C3=O)N1CC1NC12 (configuration not stated),159
16,CCCCCCCC(=O)OCC(COC(=O)CCCCCCC)OC(=O)CCCCCCC,10
17,N#C/C(=N/Nc1cccc(C(F)(F)F)c1)C(=O)c1cccs1,173
18,Cc1ccc(N)c(C)c1,16
19,C=Cc1cccc(C=C)c1,-52.3
20,Clc1ccc2c(c1)Oc1ccccc1O2,88
21,N#CCC(N)=S,113 to 119
22,CN(C)c1ccc(N=Nc2ccc(N)cc2)cc1,189
23,CCCCCCC(=O)CCCCCC,33
24,CCNC(=O)COC(=O)c1ccccc1,106
25,CCOC(=O)C(N)=S,63

# Next, values leading:
row,melting point [°C],SMILES
1,59 to 61,Nc1c(F)c(F)c(Br)c(F)c1F
2,173,O=C(C1=NOC2C(=O)N(c3ccccc3[N+](=O)[O-])C(=O)C12)c1ccc(Cl)cc1 (configuration not stated)
3,158,CCOC(=O)c1c(SC)nn(C(=O)c2ccc([N+](=O)[O-])cc2)c1N
4,49,CCCOc1ccc([N+](=O)[O-])cc1N
5,87,CC=Cc1ccc(OCC)c(O)c1
6,106,COC(=O)c1cc(OC)c(O)c(OC)c1
7,239,O=c1[nH]c(-c2ccccc2)cc2ccncc12
8,120 to 123,Cc1ccc(F)cc1NC(N)=S
9,176,COc1ccc(C=C2SC(=S)N(CNc3ccc([N+](=O)[O-])cc3)C2=O)cc1
10,72 to 74,Cc1nn(C)c(C)c1I
11,116 to 120,COc1cc(C)c2c(=O)c(-c3ccccc3)coc2c1
12,122 to 123,Cc1ccc(C(=O)C=Cc2ccc(-c3ccccc3)o2)o1
13,40,N#CCc1ccc(Cl)c(Cl)c1
14,177,Cc1ccncc1C(=O)NN
15,150,CC1(C)C(=O)NC1c1ccccc1 (configuration not stated)
16,176,COc1cc(C=O)cc([N+](=O)[O-])c1O
17,120,Cc1ccc(Oc2ccc(Br)cc2)nn1
18,90 to 95,Cc1nc2ccc(-c3ccccc3)cc2s1
19,33.5,Cc1ccc2c(C)cccc2c1C

row,melting point [°C],SMILES
1,< 20,Brc1ccc(Oc2ccccc2)cc1Br
2,185 to 188,Oc1cccnc1Br
3,222,O=C(c1ccc(O)c(O)c1)c1c(O)cc(O)cc1O
4,59,Clc1cc(Cl)c(Cl)c(Br)c1
5,248 to 249,O=C(O)c1cn2nc(Cl)ccc2n1
6,-20,CCc1cccc(C(C)=O)c1
7,151 to 154,CCOC(=O)c1cc(O)c(O)c(O)c1
8,259,O=C1c2ccccc2C(=O)c2c(O)c(O)cc(O)c21
9,103 to 104,Cc1nc(-c2ccc(CBr)cc2)no1
10,153 to 157,COc1cc([N+](=O)[O-])c(OC)cc1N
11,280,Oc1ccnc2cc(Cl)ccc12
12,137,Cc1ccc(S(N)(=O)=O)cc1Cl
13,188 to 190,CCc1n[nH]c2cc(-c3ccccc3)nn12
14,69,Cn1cc(C=O)c2ccccc21
15,269,CCc1c(C(=O)O)c(=O)cnn1-c1ccc(Cl)cc1
16,175,COc1cc(-c2nnc3sc(-c4cccnc4)nn23)cc(OC)c1OC
17,141 to 145,O=C(O)COc1ccccc1Br
18,166 to 169,O=Cc1cccn1-c1ccc([N+](=O)[O-])cc1
19,183 to 185,CCOC(=O)c1sc2ncccc2c1N

row,melting point [°C],SMILES
1,279,Cc1cc(C)n2nc(N)c(/N=N/c3cc(Cl)ccc3Cl)c2n1
2,118 to 120,COc1ccc(C(=O)c2cccc(OC)c2OC)cc1OC
3,220,Nc1ccc(Br)cc1C(=O)O
4,157 to 158,O=C(C=Cc1ccc(-c2ccc([N+](=O)[O-])cc2)o1)c1ccccc1
5,123,O=C(O)C(O)c1ccc(F)cc1F (configuration not stated)
6,111 to 112,Cc1csc(N)c1-c1nc2ccccc2s1
7,79,CC(=O)c1ccc(-c2ccccc2[N+](=O)[O-])o1
8,172,Nc1cccc(S(=O)(=O)c2cccc(N)c2)c1
9,166,O=[N+]([O-])c1ccc(O)c2ccccc12
10,177,CCCOC(=O)C1=C(C)NC(=S)NC1c1ccco1 (configuration not stated)
11,162 to 163,COC(=O)c1cc2oc(C=O)cc2n1C
12,232 to 235,O=[N+]([O-])c1ccc(-c2csc3nc4ccccc4n23)cc1
13,95,O=Cc1cc(Br)ccc1Br
14,126 to 127,Cc1cc(C)c(CC(=NOCc2ccccc2)c2cc3cc(Br)ccc3o2)c(C)c1
15,54 to 58,Cc1ccc(S(=O)(=O)CCO)cc1
16,56,Cc1c(Br)cc([N+](=O)[O-])cc1Br
17,65 to 67,COc1cc(-c2ccccc2)c(C)cc1N
18,150,CCOc1cc(OCC)c(C(=O)CCC(=O)O)cc1OCC
19,160 to 165,O=C1OC(=O)c2c1cccc2[N+](=O)[O-]
